Patent US10517964B2, “Optical imaging probes, optical imaging systems, methods of optical imaging, and methods of using optical imaging probes” (priority 2011, dated 2019)

Columns and labels:
[1] = radioactive OI and microPET of bone-seeking probe; assay type: in vivo, mice; conditions: 0.5-2 h
Description: Bone-seeking PET probe, Na^18F, was also used for radioactive OI and microPET imaging studies to further confirm the use of optical signals from radioactive probes for molecular imaging.
(§1) Radioactive optical imaging: In vivo radioactive OI was also performed with an IVIS Spectrum system. Wavelength-resolved spectral imaging was carried out suing a 18 narrow bands emission filters set (490-850 nm). Animals were placed in a light-tight chamber under isofluorane anesthesia. Each acquisition, with or without filters, took 1-5 min for all studies. Images were acquired and analyzed using Living Image 3.0 software (Caliper life sciences, Hopkinton, Mass.). Quantification of Radioactive OI images was corrected in accordance with radionuclides' respective physical decay properties. Optical signal was normalized to photons per second per centimeter square per steradian (p/s/cm^2/sr). Identical setting was used for in vitro Radioactive OI. For in vivo imaging study, normal mice or mice bearing either C6-fluc or PC3 (n=3 for each imaging probe) were injected via tail vein with Na^18F (5.3-5.7 MBq, 140-150 μCi), [^18F]FDG (10.4-11.3 MBq, 280-305 μCi), Na^131I (2.2-2.3 MBq, 59-61 μCi), ^90YCl3 (1.8-2.0 MBq, 48-54 μCi) or ^90Y-RGD-BBN (2.6-3.3 MBq, 70-90 μCi). For [^18F]FDG imaging study, the mice were fasted overnight prior to the experiment.

[2] = thyroid radioactive OI and SPECT/CT; assay type: in vivo, mice; conditions: quantitative analysis of OI, 0.5-24 h
Source text: Iodine ion can accumulate in the thyroid, and Na^123/131I has been widely used for imaging thyroid function, treating thyroid cancer and sodium iodide symporter^15-17. Therefore, we then tested the SPECT probe, Na^131I, for thyroid radioactive OI. […] High imaging signal was found in the thyroid and bladder at earlier time points postinjection (p.i.). […] At the end of OI study, the mice were sacrificed and the neck and chest areas were opened to expose the internal organs. The thyroid can be easily differentiated (FIG. 1.5d).
as §1, with “For in vivo imaging study, normal mice or mice bearing either C6-fluc or PC3 (n=3 for each imaging probe) were injected via tail vein with Na^18F (5.3-5.7 MBq, 140-150 μCi), [^18F]FDG (10.4-11.3 MBq, 280-305 μCi), Na^131I (2.2-2.3 MBq, 59-61 μCi), ^90YCl3 (1.8-2.0 MBq, 48-54 μCi) or ^90Y-RGD-BBN (2.6-3.3 MBq, 70-90 μCi). For [^18F]FDG imaging study, the mice were fasted overnight prior to the experiment.” left out

[3] = tested on: C6 cell line without transfection; experiment: in vitro [18F]FHBG cell uptake, negative control cells; assay type: cell-based, rat; conditions: non transfected C6 cells, 37° C., 15-120 min
Description: The in vitro [^18F]FHBG cell uptake study was performed as previously described with minor modifications (12). Briefly, C6-tk cells were seeded into 12-well plates at a density of 5×10^5 cells per well 12 h prior to the experiment. The C6 cell line without transfection was used as a negative control. The cells were then incubated with [^18F]FHBG ([…], 3 μCi/well) at 37° C. for 15, 30, 60 and 120 min. Tumor cells were washed 3 times with chilled phosphate buffered saline (PBS) and harvested with 0.25% trypsin/0.02% ethylenediaminetetraacetic acid (EDTA) (Invitrogen). The cell suspensions were transferred to a 96-well flat bottom black plate (Nunc) and imaged by an IVIS 200 system (Caliper). Luminescent images were taken without a filter [see FIG. 2.1(a)]. The exposure time was 5 min. Then the radioactivity of the cell suspension was measured in a gamma counter (Packard, Meriden, Conn.). The in vitro cell uptake results were expressed as the percentage of the applied activity with decay correction [see FIG. 2.1(b)]. Experiments were performed twice with triplicate samples for each time point. […] More importantly, an excellent correlation has been obtained between OI and gamma counting results [see FIG. 2.1(c), r^2>0.95]. These findings lay the foundation for further in vivo studies to validate the feasibility of using OI for monitoring the nuclear reporter gene system.

[4] = biodistribution study by OI of organs and gamma counting; assay type: in vivo, mice
Description: To further compare the imaging results obtained from OI and PET, biodistribution studies were conducted. Mice were sacrificed and different organs were collected at 1 h post-injection of [^18F]FHBG. OI images were obtained for these radioactive organs and quantification analysis of optical images was performed using Living Image software version 3.1 [see FIG. 2.3(a)]. Meanwhile, the radioactivity of the organs was also measured using a gamma counter after weighing, and the radioactivity uptake in the tumor and normal tissues was calculated and expressed as a percentage of the injected radioactive dose per gram of tissue (% ID/g) [see FIG. 2.3(b)].
The ratio of kidney to tumor uptake of [^18F]FHBG at 1 h was also calculated to be 2.3 vs. 1.4, for gamma counting vs. OI quantification, respectively. This discrepancy could mainly originate from the diverse optical properties of different tissues, which ultimately affects light imaging and quantification. Compared with the C6-tk tumor, the kidney contains more hemoglobin that absorbs more optical photons. Moreover, unlike high energy gamma rays, the low energy photons have very weak tissue penetrability. Light sources deeper in the tissue contribute less for the total optical signals than those closer to the surface. Therefore the kidney/tumor ratio measured by OI is lower than that obtained by gamma counting. Overall, PET has a better quantitative capability than OI. However, radioactive OI can still serve as a qualitative or semiquantitative research tool for radioactive reporter probe studies. The radioactive OI signals also have a uniquely wide wavelength of emission spectrum (9). The emissions in the near infra-red range are especially favorable for OI in living subjects. In comparison with current reporter gene imaging using BLI probes, radioactive reporter probes may offer a better option for 3D OI reconstruction.

[5] = tested on: C6-tk cells (C6 rat glioma stably transfected with HSV-sr39tk); experiment: in vitro [18F]FHBG cell uptake, measured by OI and gamma counting; assay type: cell-based; conditions: 37° C., 15-120 min
Source text: This is mainly attributed to the ability of radioactive materials to produce low energy visible photons (1.2-3.1 eV, 400-1000 nm) associated with Cerenkov or Bremsstrahlung radiation (8-11). In this research study, we further evaluated the feasibility of using OI to monitor the nuclear reporter gene/reporter probe systems. HSV1-tk and [^18F]FHBG was thus chosen as a model system in this study. The C6 rat glioma cell line stably transfected with HSV-sr39tk plasmids (C6-tk) (12) was used, and the in vitro [^18F]FHBG uptakes in C6-tk cells were measured by both an IVIS optical imaging system (Caliper) and a gamma counter (Perkin Elmer). Finally, we performed in vivo imaging studies of the reporter gene/reporter probe using both OI and PET followed by a biodistribution study.
The in vitro [^18F]FHBG cell uptake study was performed as previously described with minor modifications (12). Briefly, C6-tk cells were seeded into 12-well plates at a density of 5×10^5 cells per well 12 h prior to the experiment. The C6 cell line without transfection was used as a negative control. […] Then the radioactivity of the cell suspension was measured in a gamma counter (Packard, Meriden, Conn.). The in vitro cell uptake results were expressed as the percentage of the applied activity with decay correction [see FIG. 2.1(b)]. […]

[6] = tested on: C6-tk tumors (HSV1-tk reporter gene); experiment: in vivo OI and PET imaging of mice bearing C6-tk and C6 tumors; conditions: for tumor to normal tissue (T/N) ratio: n=6
Description: All animal studies were carried out in compliance with federal and local institutional rules for the conduct of animal experimentation. Mice bearing two tumors (C6-tk and C6) were then used for in vivo studies. The C6-tk (left) and C6 (right) cells were injected contra-laterally in the dorsal shoulder region of each mouse (2×10^6 cells/mouse; athymic nude mice were purchased from Charles River Laboratories, n=6). Approximately 10 days later, when tumor size reached about 1-1.5 cm in diameter, small animal PET and OI were performed using the mice and the PET probe [^18F]FHBG. Images at 1 h and 2 h were obtained by both OI and PET. Results are shown by average radiance (photon/second/cm^2/str) for OI and percentage of injected dose per gram (% ID/g) for PET based on the method previously described (13). […] The strong signals in the lower part of the mouse body [FIG. 2.2 (a)] are due to the presence of the radioactivity in the bladder. […] At 2 h post-injection, with the elimination of [^18F]FHBG, only C6-tk tumors can be clearly visualized in both imaging modalities (see FIG. 2.2).

[7] = radioactive OI of 90YCl3 in mice; assay type: in vivo; conditions: various time points p.i.
Description: Mice injected with ^90YCl3 (1.8-2.0 MBq each) were also imaged by an IVIS Spectrum system at different time points p.i. (FIG. 1.6e). […] The results obtained by the radioactive OI also agreed well with the previously reports which measured the in vivo behavior of ^90YCl3 by biodistribution study^21.
as §1, with “For [^18F]FDG imaging study, the mice were fasted overnight prior to the experiment.” left out

[8] = OI, 1 h after tail vein injection

SMILES: [18F-].[Na+] [Na^18F]
- distribution of imaging signal [1]: High and consistence imaging signals were observed in the bone structures

SMILES: [131I-].[Na+] [Na^131I]
- thyroid uptake [2]: accumulated and maintained in the thyroid

SMILES: Nc1nc2c(ncn2CCC(CO)C[18F])c(=O)[nH]1 (stereo not drawn) [[^18F]FHBG, 9-(4-^18F-fluoro-3-[hydroxymethyl]butyl)guanine]
- cell uptake of [18F]FHBG [3]: very low cell uptake
- ratio of kidney to tumor uptake ([4]; 1 h, OI quantification): 1.4
- ratio of kidney to tumor uptake ([4]; 1 h, gamma counting): 2.3
- organs visible by optical imaging (biodistribution) ([4]; 1 h post-injection, excised organs): the C6-tk tumor, the kidney, and the intestine were clearly visible
- clearance route ([4]; kidney vs intestine signal, 1 h): mainly through urinary excretion
- cell uptake of [18F]FHBG [5]: rapid and high uptake
- tracer uptake in C6-tk tumors [6, 8]: C6-tk tumors can be clearly delineated
- tracer uptake in control C6 tumors [6, 8]: minimum tracer uptakes
- tumor to normal tissue (T/N) ratio ([6]; OI, 1 h post-injection): 2.6±0.5
- tumor to normal tissue (T/N) ratio ([6]; OI, 2 h post-injection): 5.1±1.1
- tumor to normal tissue (T/N) ratio ([6]; PET, 1 h post-injection): 43.2±8.4
- tumor to normal tissue (T/N) ratio ([6]; PET, 2 h post-injection): 143.0±14.8

SMILES: [Cl][90Y]([Cl])[Cl] [^90YCl3]
- tissue accumulation [7]: accumulated in the liver as well as in the bone (femur)
